The experiment has as its target BTK (Homo sapiens (Human), UniProt Q06187). The experiment can be described thus: Btk kinase assay (HTRF). The note with it: [ATP]=80 μM, BTK=3.4 nM; read-out: BTK Inhibition. The format is biochemical. The procedure, abridged: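 BTK (3.4 nM) incubated 1 h with inhibitor, 80 μM ATP and 1 μM peptide substrate in 50 mM HEPES pH 7.0 with BSA and orthovanadate. Reaction stopped with EDTA plus Eu-antibody/XL665; HTRF 665/615 ratio read after 1 h, IC50 calculated relative to no-inhibitor and no-enzyme controls.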
For orientation: TR-FRET usually uses a lanthanide donor and a delayed reading to cut background.
BTK, sequence (Q06187 whole entry, species assumed): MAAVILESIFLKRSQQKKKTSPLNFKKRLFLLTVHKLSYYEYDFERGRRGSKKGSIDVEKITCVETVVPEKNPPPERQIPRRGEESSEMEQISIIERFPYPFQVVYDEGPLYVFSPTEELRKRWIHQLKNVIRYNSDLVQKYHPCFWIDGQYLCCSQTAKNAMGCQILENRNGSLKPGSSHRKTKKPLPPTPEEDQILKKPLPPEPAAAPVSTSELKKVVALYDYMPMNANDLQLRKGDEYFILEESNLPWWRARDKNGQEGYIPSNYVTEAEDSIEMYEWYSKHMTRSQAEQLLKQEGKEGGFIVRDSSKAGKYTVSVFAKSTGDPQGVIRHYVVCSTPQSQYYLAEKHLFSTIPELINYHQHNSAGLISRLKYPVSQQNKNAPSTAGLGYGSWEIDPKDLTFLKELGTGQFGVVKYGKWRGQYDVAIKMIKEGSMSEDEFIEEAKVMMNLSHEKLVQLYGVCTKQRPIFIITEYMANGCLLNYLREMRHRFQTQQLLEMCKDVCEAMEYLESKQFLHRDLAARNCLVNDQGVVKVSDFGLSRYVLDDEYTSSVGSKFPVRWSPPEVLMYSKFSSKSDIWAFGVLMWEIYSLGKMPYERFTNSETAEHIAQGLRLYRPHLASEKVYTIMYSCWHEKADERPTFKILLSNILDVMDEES
Turning to `C=CC(=O)N1CC[C@@H](n2c(=O)n(-c3ccc(Oc4ccccc4)cc3)c3cncc(C)c32)C1` [Example 176, (R)-1-(1-acryloylpyrrolidin-3-yl)-7-methyl-3-(4-phenoxyphenyl)-1H-imidazo[4,5-c]pyridin-2(3H)-one], the IC50 was at most 10 nM.

On to `C=CC(=O)N1CCC[C@@H](n2c(=O)n(-c3ccc(Oc4cccc(C)c4F)cc3)c3cnccc32)C1` [Example 141, (R)-1-(1-acryloylpiperidin-3-yl)-3-(4-(2-fluoro-3-methylphenoxy)phenyl)-1H-imidazo[4,5-c]pyridin-2(3H)-one], for which the IC50 fell in the range of 10 to 100 nM.

As to `C=CC(=O)Nc1cccc(-n2c(=O)n(-c3ccc(OCc4cc(F)c(F)cc4F)cc3)c3cnccc32)c1` [Example 195, N-(3-(2-oxo-3-(4-((2,4,5-trifluorobenzyl)oxy)phenyl)-2,3-dihydro-1H-imidazo[4,5-c]pyridin-1-yl)phenyl)acrylamide], the IC50 fell in the range of 10 to 100 nM. Turning to `C=CC(=O)N1CC[C@@H](n2c(=O)n(-c3ccc(Oc4ccc(C(F)(F)F)cc4)c(Cl)c3)c3cnccc32)C1` [Example 43, (R)-1-(1-acryloylpyrrolidin-3-yl)-3-(3-chloro-4-(4-(trifluoromethyl)phenoxy)phenyl)-1H-imidazo[4,5-c]pyridin-2(3H)-one], the IC50 lay in the range of 100 to 1000 nM.

With `C=CC(=O)N1CC[C@@H](n2c(=O)n(-c3ccc(Oc4ccccc4)cc3)c3c(C#N)nccc32)C1` [Example 65], the IC50 was in the range of 1000 to 10000 nM. As to `C=CC(=O)Nc1cccc(-n2c(=O)n(-c3ccc(OCc4ccc(Cl)cc4Cl)cc3)c3cnccc32)c1` [Example 229, N-(3-(3-(4-((2,4-dichlorobenzyl)oxy)phenyl)-2-oxo-2,3-dihydro-1H-imidazo[4,5-c]pyridin-1-yl)phenyl)acrylamide], the IC50 was in the range of 10 to 100 nM. On to `C=CC(=O)N1CC[C@@H](n2c(=O)n(-c3ccc(Oc4cccc(F)c4)cc3)c3cnccc32)C1` [Example 84, (R)-1-(1-acryloylpyrrolidin-3-yl)-3-(4-(3-fluorophenoxy)phenyl)-1H-imidazo[4,5-c]pyridin-2(3H)-one], for which the IC50 is 10 to 100 nM. `C=CC(=O)Nc1cccc(-n2c(=O)n(-c3ccc(Oc4cccc(OC(C)C)c4)c(C)c3)c3cnccc32)c1` [Example 46, N-(3-(3-(4-(3-isopropoxyphenoxy)-3-methylphenyl)-2-oxo-2,3-dihydro-1H-imidazo[4,5-c]pyridin-1-yl)phenyl)acrylamide]: the IC50 lay within 1000 to 10000 nM. On to `C=CC(=O)Nc1cccc(-n2c(=O)n(-c3ccc(Oc4cccc(F)c4OC)cc3)c3cnccc32)c1` [Example 136, N-(3-(3-(4-(3-fluoro-2-methoxyphenoxy)phenyl)-2-oxo-2,3-dihydro-1H-imidazo[4,5-c]pyridin-1-yl)phenyl)acrylamide], for which the IC50 is 10 to 100 nM. For `C=CC(=O)Nc1cccc(-n2c(=O)n(-c3ccc(Oc4ccnc(C(=O)NC)c4)cc3)c3cnccc32)c1` [Example 115, 4-(4-(1-(3-acrylamidophenyl)-2-oxo-1H-imidazo[4,5-c]pyridin-3(2H)-yl)phenoxy)-N-methylpicolinamide], the IC50 was 100 to 1000 nM. Regarding `C=CC(=O)N1CC[C@@H](n2c(=O)n(-c3ccc(OCc4ccc(F)c(F)c4)c(Cl)c3)c3cnccc32)C1` [Example 201, (R)-1-(1-acryloylpyrrolidin-3-yl)-3-(3-chloro-4-((3,4-difluorobenzyl)oxy)phenyl)-1H-imidazo[4,5-c]pyridine-2(3H)-one], the IC50 lay within 10 to 100 nM.

On to `C=CC(=O)Nc1cccc(-n2c(=O)n(-c3ccc(Oc4cccc(Cl)c4)cc3)c3cnccc32)c1` [Example 69, N-(3-(3-(4-(3-chlorophenoxy)phenyl)-2-oxo-2,3-dihydro-1H-imidazo[4,5-c]pyridin-1-yl)phenyl)acrylamide], for which the IC50 is 10 to 100 nM.

Turning to `C=CC(=O)Nc1cccc(-n2c(=O)n(-c3ccc(Oc4ccccc4)cc3)c3ccncc32)c1` [Example 121, N-(3-(2-oxo-1-(4-phenoxyphenyl)-1H-imidazo[4,5-c]pyridin-3(2H)-yl)phenyl)acrylamide], the IC50 was 100 to 1000 nM. For `C=CC(=O)N1CC[C@@H](n2c(=O)n(-c3ccc(Oc4ccccc4)cc3)c3c([N+](=O)[O-])cccc32)C1` [Example 189, (R)-1-(1-acryloylpyrrolidin-3-yl)-4-nitro-3-(4-phenoxyphenyl)-1H-benzo[d]imidazol-2(3H)-one], the IC50 was at least 10000 nM. Under `C=CC(=O)N1CC[C@@H](n2c(=O)n(-c3ccc(Oc4ccccn4)cc3)c3cnccc32)C1` [Example 104, (R)-1-(1-acryloylpyrrolidin-3-yl)-3-(4-(pyridin-2-yloxy)phenyl)-1,3-dihydro-2H-imidazo[4,5-c]pyridin-2-one] stands 100 to 1000 nM. Consider `C=CC(=O)N1CCC(n2c(=O)n(-c3ccc(Oc4cccc(C(F)(F)F)c4)c(Cl)c3)c3cnccc32)C1` (centres unmarked) [Example 6, 1-(1-acryloylpyrrolidin-3-yl)-3-(3-chloro-4-(3-(trifluoromethyl)phenoxy)phenyl)-1H-imidazo[4,5-c]pyridin-2(3H)-one], for which the IC50 was in the range of 10 to 100 nM. `C=CC(=O)N1CC[C@@H](n2c(=O)n(-c3ccc(OCc4cc(F)ccc4F)c(Cl)c3)c3cnccc32)C1` [Example 206, (R)-1-(1-acryloylpyrrolidin-3-yl)-3-(3-chloro-4-((2,5-difluorobenzyl)oxy)phenyl)-1H-imidazo[4,5-c]pyridin-2(3H)-one]: the IC50 fell in the range of 100 to 1000 nM.

As for `C=CC(=O)Nc1cccc(-n2c(=O)n(-c3cccc(Oc4ccccc4C)c3)c3cnccc32)c1` [Example 88, N-(3-(2-oxo-3-(3-(o-tolyloxy)phenyl)-2,3-dihydro-1H-imidazo[4,5-c]pyridin-1-yl)phenyl)acrylamide], the IC50 lay within 10 to 100 nM. For `O=C(/C=C/N1CCOCC1)N1CC[C@@H](n2c(=O)n(-c3ccc(Oc4ccccc4)c(Cl)c3)c3cnccc32)C1` [Example 18, (R,E)-3-(3-chloro-4-phenoxyphenyl)-1-(1-(3-morpholinoacryloyl)pyrolidin-3-yl)-1H-imidazo[4,5-c]-pyridin-2(3H)-one], the IC50 was 100 to 1000 nM. Next, `C=CC(=O)N1CC[C@@H](n2c(=O)n(-c3ccc(Oc4cccc(OC)c4F)cc3)c3cnccc32)C1` [Example 191, (R)-1-(1-acryloylpyrrolidin-3-yl)-3-(4-(2-fluoro-3-methoxyphenoxy)phenyl)-1H-imidazo[4,5-c]pyridin-2(3H)-one]: at most 10 nM; `C=CC(=O)N1CC[C@@H](n2c(=O)n(-c3ccc(Oc4cccc(C)c4)c(F)c3)c3cnccc32)C1` [Example 78, (R)-1-(1-acryloylpyrrolidin-3-yl)-3-(3-fluoro-4-(m-tolyloxy)phenyl)-1H-imidazo[4,5-c]pyridin-2(3H)-one]: 10 to 100 nM. Regarding `C=CC(=O)Nc1cccc(-n2c(=O)n(-c3ccc(NC(=O)c4ccccc4)cc3)c3cnccc32)c1` [Example 261, N-(4-(1-(3-acrylamidophenyl)-2-oxo-1H-imidazo[4,5-c]pyridin-3(2H)-yl)phenyl)benzamide], the IC50 lay within 100 to 1000 nM. Consider `C=CC(=O)Nc1cccc(-n2c(=O)n(-c3ccc(NC(=O)c4cccc(C)c4)cc3)c3cnccc32)c1` [Example 267, N-(4-(1-(3-acrylamidophenyl)-2-oxo-1H-imidazo[4,5-c]pyridin-3(2H)-yl)phenyl)-3-methylbenzamide], for which the IC50 is at least 10000 nM.

Values taken from patent publication US10358446B2, “Bruton's tyrosine kinase inhibitors” (Zibo Biopolar Changsheng Pharmaceutical Co. Ltd., priority 2015, dated 2019).
